Laboratory results published in patent US5324832A, “Muscarinic antagonists” (priority 1991, dated 1994).
pKd: −log10 of the molar value. “Also recorded” adds a separate entry of the source. Values belong to the molecule of their own block, whether it stands above or below them.

How the values were obtained:
m2 muscarinic receptors = biological target: T1, m2 muscarinic receptors (Rattus norvegicus, UniProt P10980); assay: Inhibition of [3H]NMS binding, membranes from rat heart (m2 receptors); conditions: for factor by which 29a and 32d differ in affinity at m2 receptors: 29a versus 32d
T1 construct: Rat heart tissue was the source of m2 muscarinic receptors; from tissue; host or cells: rat heart
T1 sequence (P10980 1-466): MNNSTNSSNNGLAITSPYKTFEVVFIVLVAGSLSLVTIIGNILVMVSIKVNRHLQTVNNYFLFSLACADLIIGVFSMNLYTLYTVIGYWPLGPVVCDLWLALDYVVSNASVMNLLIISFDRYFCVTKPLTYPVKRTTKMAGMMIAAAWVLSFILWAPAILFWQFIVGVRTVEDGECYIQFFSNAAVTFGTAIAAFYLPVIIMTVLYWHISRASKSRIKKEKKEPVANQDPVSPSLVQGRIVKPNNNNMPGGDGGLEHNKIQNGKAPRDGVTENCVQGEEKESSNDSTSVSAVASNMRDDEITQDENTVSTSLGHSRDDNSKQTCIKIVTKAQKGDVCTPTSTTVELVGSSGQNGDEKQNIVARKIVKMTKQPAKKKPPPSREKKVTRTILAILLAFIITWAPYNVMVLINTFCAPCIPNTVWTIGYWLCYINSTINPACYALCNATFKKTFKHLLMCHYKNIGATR
From the text: (§1) The analogues were screened in binding assays using membranes from cells or tissues containing primarily single subtypes of m1 through m4 muscarinic receptors. Transfected A9L cells were used as a source of homogeneous populations of m1, m3, and m4 receptors. See Jones, S. V.; Barker, J. L.; Buckley, N. J.; Bonner, T. I; Brann, M. R., Mol. Pharmacol., 1988, 34, 421, which is specifically incorporated by reference herein. Rat heart tissue was the source of m2 muscarinic receptors.
(§2) A crude membrane fraction was obtained as follows. Confluent cultures were rinsed three times with phosphate-buffered saline, and lysed in a solution of 2 mM Tris-HCl (pH 7.1) and 1 mM EDTA for 30 min at 2° C. The cells were harvested by scraping and homogenized on a Polytron (10 sec, 75% mix).
(§3) Nuclei were removed in a low speed centrifugation (400 × g, 5 min) and a crude membrane preparation was obtained by centrifugation of the supernatant at 50,000 × g for 20 min. The resulting pellet was resuspended in the lysis buffer and recentrifuged at 50,000 × g for 20 min. Membranes were stored frozen at -70° C. until needed.
(§4) The total volume was 1 mL.
(§5) The incubation was terminated by rapid filtration over GF/B filters using a Brandel cell harvester. The filters were washed three times with ice-cold 0.9% NaCl, equilibrated in scintillation counting fluid and counted on a Beckmann LS 5801 liquid scintillation counter at 47% efficiency.
(§6) It was routinely subtracted from the total counts.

m1 muscarinic receptors [1] = biological target: T2, m1 muscarinic receptors (Rattus norvegicus, UniProt P08482); assay: Inhibition of [3H]NMS binding, membranes of transfected A9L cells expressing m1 receptors; design: expressed in transfected cells; host or cells: A9L cells (obtained from Dr. M. Brann, NIH); conditions: for factor by which 29a and 32d differ in affinity at m1 receptors: 29a versus 32d
T2 sequence (P08482 1-460): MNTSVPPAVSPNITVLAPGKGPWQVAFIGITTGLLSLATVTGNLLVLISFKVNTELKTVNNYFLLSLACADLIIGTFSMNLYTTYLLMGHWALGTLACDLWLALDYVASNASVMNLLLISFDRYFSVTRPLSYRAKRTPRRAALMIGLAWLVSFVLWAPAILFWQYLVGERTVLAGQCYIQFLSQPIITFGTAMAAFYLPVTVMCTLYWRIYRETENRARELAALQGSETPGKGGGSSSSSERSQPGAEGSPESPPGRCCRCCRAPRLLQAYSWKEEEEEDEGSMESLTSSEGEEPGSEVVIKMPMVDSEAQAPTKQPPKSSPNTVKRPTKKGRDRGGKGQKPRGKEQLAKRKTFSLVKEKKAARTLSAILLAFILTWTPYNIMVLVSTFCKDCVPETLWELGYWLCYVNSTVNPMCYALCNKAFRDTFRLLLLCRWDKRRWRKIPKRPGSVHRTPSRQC
Experimental: The analogues were screened in binding assays using membranes from cells or tissues containing primarily single subtypes of m1 through m4 muscarinic receptors. Transfected A9L cells were used as a source of homogeneous populations of m1, m3, and m4 receptors. […] Rat heart tissue was the source of m2 muscarinic receptors.
A crude membrane fraction was obtained as follows. Confluent cultures were rinsed three times with phosphate-buffered saline, and lysed in a solution of 2 mM Tris-HCl (pH 7.1) and 1 mM EDTA for 30 min at 2° C.
as §3, §4
The incubation was terminated by rapid filtration over GF/B filters using a Brandel cell harvester.
as §6

[2] = test system: m1 through m4 muscarinic receptors; assay: Displacement of [3H]NMS from muscarinic receptors (m1-m4), subtype not singled out; format: binding; conditions: in words; for affinity / potency at muscarinic receptors: qualitative; for receptor subtype selectivity: m1 versus m2 / among subtypes
From the text: as §1, §2, §3, §4, §5, §6

m1 muscarinic receptors [3] = biological target: T2, m1 muscarinic receptors; assay: Irreversible labelling: [3H]NMS saturation of treated vs. control rat forebrain membranes; format: binding; conditions: in words
Experimental: When incubated with membranes from rat forebrain tissue […] followed by thorough washing, compound 41a caused an unrecoverable reduction in the Bmax at m1 receptors of 90-95% (from saturation of treated vs. control membranes with [3H]NMS).

gastric acid production = conditions: clinical; in words; cited from earlier work
m1 muscarinic receptors [4] = biological target: T2, m1 muscarinic receptors; format: binding; conditions: 1.0 mM compound 26, in words
Experimental: To assay for irreversible inhibition in rat brain membranes, Scatchard analyses before and after treatment of the membranes with 26 were compared. Even a very […].
Aliquots of brain membranes were incubated with 1.0 mM of freshly dissolved 26 in phosphate-buffered saline (pH 8.0) for 60 min at room temperature, then centrifuged at 15,000 rpm for 10 min.
The resulting pellet was resuspended in 25 mL of fresh phosphate-buffered saline (pH 7.2) and centrifuged as above.

[5] = Storage stability of the salt; format: physicochemical; conditions: -20 ° C.; dihydrochloride salt
Experimental: Compound 25 (110 mg, 0.22 mmol) was refluxed for 1 h with thionyl chloride (1 mL) in chloroform (4 mL). The volatile material was removed in vacuo, and the residue was basified with aqueous Na2 CO3 (pH 10) and washed immediately with ether to completely remove the non polar impurity (TLC CHCl3 /CH3 OH/NH4 OH: 9/1/0.1, Rf 0.4). The product was extracted into CHCl3 from the cold aqueous phase and the combined CHCl3 layers were concentrated in vacuo and acidified using ether/HCl. The precipitate was dried in vacuo to yield 29 mg of 26 (25%) as a white solid: mp 188°-190° C.; 1H NMR (D20, HCl salt) δ 3.00-4.00 (m, 14 H), 7.50-7.70 (m, 3 H), 7.70-7.90 (m, 3 H), 8.40 (s, 1 H); MS (CI/NH3) m/e 400 (MH+), 212 (base), 364, 338. […] The salt was stable upon storage at -20 ° C. for at least 6 months.

[6] = in words, versus propargyl derivative 22

Structure (SMILES): O=C1Nc2cccnc2N(C(=O)CN2CCN(CCCCCCCCCCNC(=S)Nc3cccc(N=C=S)c3)CC2)c2ccccc21 [Compound 41a, n=10, 5,11-Dihydro-11-[[4-[10-[(3-isothiocyanatophenyl)aminothiocarbonylamino]decyl]-1-piperazinyl]acetyl]-6H-pyrido[2,3-b][1,4]-benzodiazepine-6-one]
chemical affinity labelling of m1 receptors (m1 muscarinic receptors [3]): potent chemical affinity label for ml receptors

Structure (SMILES): CN1CCN(CC(=O)N2c3ccccc3C(=O)Nc3cccnc32)CC1 [pirenzepine]
inhibition of gastric acid production (literature) (gastric acid production): useful clinically in the inhibition of gastric acid production

Structure (SMILES): Cl.Cl.O=C1Nc2cccnc2N(C(=O)CN2CCN(CCCl)CC2)c2ccccc21 [Compound 26, 5,11-Dihydro-11-[(4-[2-chloroethyl]-1-piperazinyl)acetyl]-6H-pyrido[2,3-b][1,4]benzodiazepine-6-one dihydrochloride]
change in Kd and Bmax of [3H]NMS after preincubation (m1 muscarinic receptors [4]): no change in the Kd and Bmax values
irreversible inhibition of m1 receptors (m1 muscarinic receptors [4]; dihydrochloride): not an irreversible inhibitor of m1 receptors; also recorded: lack of irreversible inhibition
stability of the salt upon storage [5]: at least 6 months
selectivity ratio m1 versus m2 receptors (m1 muscarinic receptors [1]; in favor of m1 versus m2 receptors): 4.4 fold
affinity / potency at muscarinic receptors [2]: high binding affinity
receptor subtype selectivity [2]: retained selectivity for m1 receptors

Further lines, with some results ahead:

pKd (m2 muscarinic receptors; m2): > 7.70
pKd (m1 muscarinic receptors [1]; m1): > 7.70
receptor subtype selectivity [2]: non-selective
Structure (SMILES): NCCCCCCCCCCN1CCN(CC(=O)N2c3ccccc3C(=O)Nc3cccnc32)CC1 [Compound 34h, 5,11-Dihydro-11-[(4-[10-aminodecyl]-1-piperazinyl)acetyl]-6H-pyrido[2,3-b][1,4]-benzodiazepine-6-one]
affinity / potency at muscarinic receptors [2]: higher affinities than the corresponding derivatives with the small neutral acetylamino terminal group (35g and 35h); also recorded: most potent in the series of primary amines

factor by which 29a and 32d differ in affinity at m2 receptors (m2 muscarinic receptors; m2): 280
factor by which 29a and 32d differ in affinity at m1 receptors (m1 muscarinic receptors [1]; m1): 360
Structure (SMILES): CC(C)(C)OC(=O)NCCCCCCN1CCN(CC(=O)N2c3ccccc3C(=O)Nc3cccnc32)CC1 [Compound 32d]
affinity / potency at muscarinic receptors [2]: more potent than the corresponding free amines (34)

receptor subtype selectivity [2]: non-selective for m1 versus m2 receptors
Structure (SMILES): O=C1Nc2cccnc2N(C(=O)CN2CCN(Cc3ccccc3)CC2)c2ccccc21 [Compound 23, 5,11-Dihydro-11-[(4-benzyl-1-piperazinyl)acetyl]-6H-pyrido[2,3-b] [1,4]benzodiazepine-6-one]
affinity at m2 muscarinic receptors relative to 22 (m2 muscarinic receptors; [6]): greater affinity at m1 and m2 muscarinic receptors
affinity at m1 muscarinic receptors relative to 22 (m1 muscarinic receptors [1]; [6]): greater affinity at m1 and m2 muscarinic receptors

factor by which 29a and 32d differ in affinity at m2 receptors (m2 muscarinic receptors; m2): 280
factor by which 29a and 32d differ in affinity at m1 receptors (m1 muscarinic receptors [1]; m1): 360
affinity / potency at muscarinic receptors [2]: inactivity
Structure (SMILES): CC(C)(C)OC(=O)NCCC(=O)NCCN1CCN(CC(=O)N2c3ccccc3C(=O)Nc3cccnc32)CC1 [Compound 29a]
